What all share (assay type): in vivo
Assay [1] relates to Cotton. Put plainly: Preemergence Herbicidal Activity, Cotton. The settings on record: Gossypium hirsutum, pre-emergence; for plant injury at 1000 g/ha: 1.0 kg/ha; for plant injury at 500 g/ha: 0.5 kg/ha. Summed up:
(§1)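 Percent control scored after pre- or postemergence treatment at rates in kg/ha, using test compounds generally formulated in 50/50 acetone/water.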

Assay [2] deals with Soybean. Description: Preemergence Herbicidal Activity, Soybean. Conditions: Glycine max, pre-emergence; for plant injury at 1000 g/ha: 1.0 kg/ha; for plant injury at 500 g/ha: 0.5 kg/ha. In short, it runs like this:
(§2)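 Kilogram-per-hectare application rates; outcome scored by percent control of treated plants.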

Assay [3] relates to Field Corn. Description: Preemergence Herbicidal Activity, Field Corn. Conditions: Zea mays, pre-emergence; for plant injury at 1000 g/ha: 1.0 kg/ha; for plant injury at 500 g/ha: 0.5 kg/ha. Summed up: as §2
In assay [4] the test system is Rice. Put plainly: Preemergence Herbicidal Activity, Rice. The settings on record: Oryza sativa, pre-emergence; for plant injury at 1000 g/ha: 1.0 kg/ha; for plant injury at 500 g/ha: 0.5 kg/ha. In short, it runs like this:
as §2

The subject of assay [5] is Wheat. Description: Preemergence Herbicidal Activity, Wheat. The settings on record: Triticum aestivum, pre-emergence; for plant injury at 1000 g/ha: 1.0 kg/ha; for plant injury at 500 g/ha: 0.5 kg/ha. Summed up: as §2
In assay [6] the test system is Field Bindweed. Put plainly: Preemergence Herbicidal Activity, Field Bindweed. Conditions: pre-emergence; for pest or weed control at 1000 g/ha: 1.0 kg/ha; for pest or weed control at 500 g/ha: 0.5 kg/ha. Summed up:
as §1

Assay [7] has as its system Morningglory. Put plainly: Preemergence Herbicidal Activity, Morningglory. Conditions: Ipomoea, pre-emergence; for pest or weed control at 1000 g/ha: 1.0 kg/ha; for pest or weed control at 500 g/ha: 0.5 kg/ha. In short, it runs like this: as §1
In assay [8] the test system is Velvetleaf. Description: Preemergence Herbicidal Activity, Velvetleaf. Conditions: Abutilon theophrasti, pre-emergence; for pest or weed control at 1000 g/ha: 1.0 kg/ha; for pest or weed control at 500 g/ha: 0.5 kg/ha. Summed up: as §1
Assay [9] has as its system Barnyardgrass. Put plainly: Preemergence Herbicidal Activity, Barnyardgrass. Conditions: Echinochloa crus-galli, pre-emergence; for pest or weed control at 1000 g/ha: 1.0 kg/ha; for pest or weed control at 500 g/ha: 0.5 kg/ha. In short, it runs like this:
(§3)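 Test compounds are dosed on a per-area basis (kg/ha); plant response is reported as % C.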

In assay [10] the test system is Green Foxtail. Description: Preemergence Herbicidal Activity, Green Foxtail. The settings on record: Setaria viridis, pre-emergence; for pest or weed control at 1000 g/ha: 1.0 kg/ha; for pest or weed control at 500 g/ha: 0.5 kg/ha. In short, it runs like this: as §3
Assay [11] relates to Johnsongrass. Put plainly: Preemergence Herbicidal Activity, Johnsongrass. The settings on record: Sorghum halepense, pre-emergence; for pest or weed control at 1000 g/ha: 1.0 kg/ha; for pest or weed control at 500 g/ha: 0.5 kg/ha. In short, it runs like this: as §3
For assay [12], the system named is Cotton. Put plainly: Postemergence Herbicidal Activity, Cotton. The settings on record: Gossypium hirsutum, post-emergence; for plant injury at 1000 g/ha: 1.0 kg/ha; for plant injury at 500 g/ha: 0.5 kg/ha. In short, it runs like this: as §1
Assay [13] has as its system Soybean. Put plainly: Postemergence Herbicidal Activity, Soybean. Conditions: Glycine max, post-emergence; for plant injury at 1000 g/ha: 1.0 kg/ha; for plant injury at 500 g/ha: 0.5 kg/ha. In short, it runs like this: as §2
Assay [14] concerns Field Corn. Description: Postemergence Herbicidal Activity, Field Corn. The settings on record: Zea mays, post-emergence; for plant injury at 1000 g/ha: 1.0 kg/ha; for plant injury at 500 g/ha: 0.5 kg/ha. In short, it runs like this: as §2
Assay [15] has as its system Rice. Put plainly: Postemergence Herbicidal Activity, Rice. Conditions: Oryza sativa, post-emergence; for plant injury at 1000 g/ha: 1.0 kg/ha; for plant injury at 500 g/ha: 0.5 kg/ha. Summed up: as §2
The test system of assay [16] is Wheat. Description: Postemergence Herbicidal Activity, Wheat. The settings on record: Triticum aestivum, post-emergence; for plant injury at 1000 g/ha: 1.0 kg/ha; for plant injury at 500 g/ha: 0.5 kg/ha. Summed up: as §2
The subject of assay [17] is Field Bindweed. Put plainly: Postemergence Herbicidal Activity, Field Bindweed. Conditions: post-emergence; for pest or weed control at 1000 g/ha: 1.0 kg/ha; for pest or weed control at 500 g/ha: 0.5 kg/ha. In short, it runs like this:
as §1

In assay [18] the test system is Morningglory. Description: Postemergence Herbicidal Activity, Morningglory. Conditions: Ipomoea, post-emergence; for pest or weed control at 1000 g/ha: 1.0 kg/ha; for pest or weed control at 500 g/ha: 0.5 kg/ha. Summed up:
as §1

The subject of assay [19] is Velvetleaf. Description: Postemergence Herbicidal Activity, Velvetleaf. The settings on record: Abutilon theophrasti, post-emergence; for pest or weed control at 1000 g/ha: 1.0 kg/ha; for pest or weed control at 500 g/ha: 0.5 kg/ha. Summed up:
as §1

Assay [20] relates to Barnyardgrass. Put plainly: Postemergence Herbicidal Activity, Barnyardgrass. Conditions: Echinochloa crus-galli, post-emergence; for pest or weed control at 1000 g/ha: 1.0 kg/ha; for pest or weed control at 500 g/ha: 0.5 kg/ha. In short, it runs like this: as §3
Assay [21] has as its system Green Foxtail. Put plainly: Postemergence Herbicidal Activity, Green Foxtail. The settings on record: Setaria viridis, post-emergence; for pest or weed control at 1000 g/ha: 1.0 kg/ha; for pest or weed control at 500 g/ha: 0.5 kg/ha. Summed up: as §3
Assay [22] deals with Johnsongrass. Put plainly: Postemergence Herbicidal Activity, Johnsongrass. Conditions: Sorghum halepense, post-emergence; for pest or weed control at 1000 g/ha: 1.0 kg/ha; for pest or weed control at 500 g/ha: 0.5 kg/ha. Summed up: as §3

Broadly, the plant injury is the degree to which the test organism was suppressed or injured, in per cent. High values mean strong suppression, low ones weak suppression. Usually pest or weed control stands for the degree to which the test organism was suppressed or injured, in per cent. A higher pest or weed control goes with a strong effect.

Consider `CCS(=O)(=O)N(c1cc(-n2nnn(CCCF)c2=O)c(F)cc1Br)S(=O)(=O)CC` [Compound 22, 1-[4-bromo-2-fluoro-5-[bis(N--ehtylsulfonyl)amino]phenyl]-1,4-dihydro-4-(3-fluoropropyl)-5H--tetrazol-5-one], for which the plant injury at 1000 g/ha in the assay with Cotton [1] was 100%; in the assay with Soybean [2], 60%; in the assay on Field Corn [3], 95%; in the assay on Rice [4] it was 80%; in the assay with Wheat [5], 90%; in the assay with Cotton [12] it was 100%. Further, the plant injury at 1000 g/ha came to 95% in the assay with Soybean [13], 100% with Field Corn [14], 80% in the assay with Rice [15] and 90% in the assay on Wheat [16]. Also, the pest or weed control at 1000 g/ha with Field Bindweed [6], in the assay with Morningglory [7], with Velvetleaf [8], in the assay on Barnyardgrass [9], in the assay on Green Foxtail [10] and in the assay with Johnsongrass [11] was 100% each time. The pest or weed control at 1000 g/ha was 95% in the assay with Field Bindweed [17]; 95% in the assay on Morningglory [18]; 100% in the assay with Velvetleaf [19]; 100% in the assay with Barnyardgrass [20]; 100% with Green Foxtail [21]; 100% in the assay with Johnsongrass [22].
`CCCS(=O)(=O)N(c1cc(-n2nnn(CCCF)c2=O)c(F)cc1F)S(=O)(=O)CCC` [Compound 25]: the plant injury at 500 g/ha amounted to 10% with Cotton [1]; 20% in the assay with Soybean [2]; 80% in the assay with Field Corn [3]; 20% in the assay on Rice [4]; 20% with Wheat [5]; 40% with Cotton [12]. Also, the plant injury at 500 g/ha in the assay with Soybean [13] stood at 20%; in the assay with Field Corn [14], 60%; in the assay with Rice [15], 20%; in the assay with Wheat [16] it was 20%. Further, the pest or weed control at 500 g/ha in the assay on Field Bindweed [6] was determined as 0%; with Morningglory [7], 10%; with Velvetleaf [8], 20%; in the assay with Barnyardgrass [9] it was 50%; in the assay on Green Foxtail [10], 10%; with Johnsongrass [11] it was 60%. In addition, the pest or weed control at 500 g/ha amounted to 40% in the assay with Field Bindweed [17]; 30% with Morningglory [18]; 80% in the assay on Velvetleaf [19]; 20% in the assay with Barnyardgrass [20]; 30% in the assay on Green Foxtail [21]; 20% in the assay with Johnsongrass [22].
Take `CCCS(=O)(=O)N(c1cc(-n2nnn(CCCF)c2=O)c(F)cc1Br)S(=O)(=O)CCC` [Compound 27]: the plant injury at 1000 g/ha is 95% with Cotton [1]; 30% in the assay on Soybean [2]; 95% in the assay on Field Corn [3]; 60% in the assay on Rice [4]; 60% in the assay with Wheat [5]; 100% in the assay on Cotton [12]. Besides, the plant injury at 1000 g/ha in the assay with Soybean [13] came to 90%; with Field Corn [14] it was 95%; in the assay on Rice [15], 30%; in the assay on Wheat [16], 80%. Moreover, the pest or weed control at 1000 g/ha in the assay on Field Bindweed [6] came to 100%; with Morningglory [7], 100%; with Velvetleaf [8], 100%; with Barnyardgrass [9], 100%; in the assay on Green Foxtail [10] it was 100%; with Johnsongrass [11], 95%. For the same compound, the pest or weed control at 1000 g/ha in the assay with Field Bindweed [17] stood at 95%; in the assay on Morningglory [18], 100%; in the assay on Velvetleaf [19], 100%; with Barnyardgrass [20] it was 100%; in the assay on Green Foxtail [21], 100%; in the assay with Johnsongrass [22], 100%.
For `CCCS(=O)(=O)Nc1cc(-n2nnn(CCCF)c2=O)c(F)cc1Cl` [Compound 28, 1-[4-Chloro-2-fluoro-5-(N--propylsulfonylamino)phenyl]-1,4-dihydro-4-(3-fluoropropyl)-5H--tetrazol-5-one], the plant injury at 500 g/ha in the assay on Cotton [1] amounted to 100%; in the assay with Soybean [2], 0%; with Field Corn [3], 30%; with Rice [4], 70%; in the assay on Wheat [5] it was 30%; in the assay with Cotton [12], 100%. The plant injury at 500 g/ha was found to be 30% in the assay with Soybean [13], 40% in the assay on Field Corn [14], 70% with Rice [15] and 60% with Wheat [16]. The pest or weed control at 500 g/ha was found to be 100% in the assay on Field Bindweed [6]; 100% in the assay with Morningglory [7]; 100% with Velvetleaf [8]; 95% in the assay with Barnyardgrass [9]; 90% in the assay on Green Foxtail [10]; 70% in the assay with Johnsongrass [11]. Moreover, the pest or weed control at 500 g/ha was determined as 100% in the assay on Field Bindweed [17]; 100% in the assay with Morningglory [18]; 100% in the assay on Velvetleaf [19]; 100% in the assay with Barnyardgrass [20]; 100% with Green Foxtail [21]; 95% with Johnsongrass [22].
With `CCCS(=O)(=O)N(C)c1cc(-n2nnn(CCCF)c2=O)c(F)cc1Cl` [Compound 29, 1-[4-Chloro-2-fluoro-5-(N--methyl-N--propylsulfonylamino)phenyl]-1,4-dihydro-4-(3-fluoropropyl)-5H--tetrazol-5-one], the plant injury at 250 g/ha with Cotton [1] (0.25 kg/ha) stood at 60%; with Soybean [2] (0.25 kg/ha), 30%; in the assay on Field Corn [3] (0.25 kg/ha) it was 95%; with Rice [4] (0.25 kg/ha) it was 60%; in the assay on Wheat [5] (0.25 kg/ha), 80%; with Cotton [12] (0.25 kg/ha) it was 70%. Further, the plant injury at 250 g/ha in the assay with Soybean [13] (0.25 kg/ha) stood at 70%; in the assay with Field Corn [14] (0.25 kg/ha), 40%; with Rice [15] (0.25 kg/ha) it was 60%; in the assay with Wheat [16] (0.25 kg/ha), 80%. For the same compound, the pest or weed control at 250 g/ha with Field Bindweed [6] (0.25 kg/ha) was determined as 70%; in the assay with Morningglory [7] (0.25 kg/ha) it was 70%; in the assay on Velvetleaf [8] (0.25 kg/ha), 100%; in the assay on Barnyardgrass [9] (0.25 kg/ha) it was 100%; in the assay with Green Foxtail [10] (0.25 kg/ha), 100%; in the assay with Johnsongrass [11] (0.25 kg/ha), 100%. In addition, the pest or weed control at 250 g/ha came out at 80% in the assay with Field Bindweed [17] (0.25 kg/ha); 70% in the assay with Morningglory [18] (0.25 kg/ha); 100% with Velvetleaf [19] (0.25 kg/ha); 50% in the assay on Barnyardgrass [20] (0.25 kg/ha); 60% in the assay with Green Foxtail [21] (0.25 kg/ha); 70% with Johnsongrass [22] (0.25 kg/ha).

(Values after patent US4868321A, “Isothiocyanate intermediates” (FMC Corporation, priority 1988, dated 1989).)
